One experiment concerns MKN45 cells. Description: Cell-killing effect of ALA-PDT by wavelength, MTT assay survival rate. In kind it is cell-based. The method, then: MKN45 cells (purchased from Riken Cell Bank) cultured in a 35-mm dish were cultured for 4 hours in the presence of 0.168 mg/mL ALA. Then, 5 mL of a hemoglobin solution was dispensed into a 60-mm dish, placed on the 35-mm dish in which the culture was performed in the presence of ALA, and irradiated with light. Light shielding by hemoglobin was provided to imitate the inside of a living body because hemoglobin is considered to be a leading cause of the inhibition of light invasion in photodynamic therapy. The culture was irradiated to 4.5 J/cm^2 (5 mW/cm^2, 15 min.) with light having a peak at 402 nm, 502 nm, 517 nm, 529 nm, or 636 nm. […]
The survival rate of cells after light irradiation was measured using an MTT assay method. […] Thereafter, 200 μL thereof was dispensed into a 96-well plate and measured for absorbance at 570 nm using a plate reader (from Bio-Rad). The survival rate was measured from the absorbance of each sample and expressed relative to the absorbance after a medium without cultured cells were subjected to these procedures, set to 0%, and the absorbance after such cells cultured as control were subjected to these procedures, set to 100%. Optical power density with light shielding by hemoglobin was measured using Power Meter (from Scientex, Inc.); the results are shown in FIG. 3.
In general terms: Formazan colour is commonly taken as a measure of viable cells.

In a further experiment the test system is HeLa cells. The experiment can be described thus: Cancer therapeutic effect of ALA-PDT by wavelength, hematoxylin-eosin staining of subcutaneous HeLa tumors. Type of experiment: in vivo, SCID mice. Particulars: for tumor tissue histology (effect of ALA-PDT): 750 mg/kg b.w. ALA tail vein, 100 J/cm^2, after 4 hours, tissue taken following day. The method, then: 5×10^5 HeLa cells were subcutaneously injected into SCID mice of the mouse numbers 1 to 3. […] After maintaining the mice until the size of tumors reaches that described in Table 1, 750 mg/kg b.w. of ALA was injected into the tail vein of the mice of numbers 1 and 2. After 4 hours, the mouse of number 1 was irradiated with LED light having a peak at a wavelength of 517 nm and the mouse of number 2 was irradiated with LED light having a peak at a wavelength of 629 nm. The SCID mice irradiated with light listed above were each anesthetized on the following day; a portion containing HeLa cells was cut out, fixed in formaldehyde, subjected to dehydration treatment with ethanol and xylene, and then embedded in paraffin; and a small piece thinly sliced into a thickness of 5 μm was stained with hematoxylin-eosin to observe the tissue under a light microscope.

1 compound from patent US9345904B2, “Photodynamic therapy using photosensitizing agent or 5-aminolevulinic acid” (SBI Pharmaceuticals Co., Ltd., priority 2011, dated 2016) can be followed below.

As to `NCC(=O)CCC(=O)O` [ALA, 5-aminolevulinic acid], in the experiment on MKN45 cells (with light shielding by hemoglobin, lower optical power densities at 502-529 nm), the “cell-killing effect of lights at 502 nm, 517 nm and 529 nm relative to light at 636 nm” value is reported as “comparable cell-killing effects compared to light at 636 nm”. For the same compound, in the experiment with MKN45 cells (without light shielding by hemoglobin, 0.168 mg/mL ALA 4 hours, 4.5 J/cm^2, lights with peak at 402, 502, 517, 529 or 636 nm compared), the “cell-killing effect of ALA-PDT” value is on record as “stronger in the order of lights having a peak at 402 nm, 502 nm, 517 nm, 529 nm, or 636 nm”. Besides, the “effect of ALA-PDT at 517 nm compared with 629 nm (cell density, amount of blebs)” value in the experiment with HeLa cells (mouse number 1 (517 nm) versus mouse number 2 (629 nm), tumors about 4 mm in height) is listed as “the effect of ALA-PDT was higher”. Besides, the “tumor tissue histology (effect of ALA-PDT)” value was “the condensation of the cytoplasm, the disappearance of the nucleus, and clearance between cells due to the generation of blebs were observed” with HeLa cells (mouse number 1, LED 517 nm); “the condensation of the cytoplasm, the disappearance of the nucleus, and clearance between cells due to the generation of blebs were observed” in the experiment on HeLa cells (mouse number 2, LED 629 nm).
